{"source": "patent US7273964B1", "about": "“Non-human transgenic animals for the study of neurodegenerative syndromes” (Scuola Internazionale Superiore Di Studi Avanzati, priority 1999, dated 2007)", "key": {"[1]": {"test_system": "anti-NGF mice", "test": "Restoration of the cholinergic phenotype in the basal forebrain of anti-NGF mice by NGF (minipump or NGF-secreting fibroblasts, lateral ventricle)", "type": "in vivo, mouse", "details": "2 months-old anti-NGF mice; NGF into lateral ventricle", "procedure": "The restoration of the cholinergic phenotype in the basal forebrain was achieved by two different approaches. In a first set of experiments, NGF was delivered using slow releasing minipumps (Alzet, USA) A rubber capillary tube was inserted in the lateral ventricle and then connected by means of an osmotic minipump to a <> of the subcutaneous layer. This pump was filled by NGF (30–100 μg) diluted with Ringer-Locke physiological saline. Experiments were performed in 2 months-old transgenic mice and controls.\nIn another set of experiments, animals of the same age of previous ones were treated by an implant of fibroblasts genetically modified to secrete NGF. The fibroblasts were injected in the lateral ventricle at a 2×10^5 cells/μl concentration. The injection volume was 1.5 μl/animal. This second method allowed to verify, by ELISA, the constancy of NGF production over 4 weeks after the implantation."}, "[2]": {"test_system": "gastrocnemius muscle of anti-NGF mice", "test": "Reversibility of the muscular dystrophy in anti-NGF mice by NGF local administration", "type": "in vivo, mouse", "details": "45 day old anti-NGF mice, 7, 15 and 30 days after injection", "procedure": "All the experiments were carried out on 45 day old mice, when the serum level of the anti-NGF antibody is still not at the highest level (observed 60 days after the birth). The NGF was administered locally by different methods: (a) by intramuscular injection of NGF, (b) by intramuscular injection of a viral recombinant vector (adenovirus) encoding for NGF cDNA or (c) by the implant of NGF secreting fibroblasts. All the administration routes included the injection or implant in the gastrocnemius muscle, one of the skeletal muscles affected by muscular dystrophy. The injections and implants were carried out on the right leg, while the gastrocnemius muscle of the left leg was used as control. A) NGF was injected as pellet, consisting of diazocellulose mixed NGF in borate buffer at pH 8.0 for 72 hours and following neutralisation by glycine saturated solution (Hendry, 1982). This method allows the exact localisation and slow release of this neurotrophin. Different NGF concentrations were used, comprised in the range from […] and 2 mg for each animal. […]\nTo verify the effect of the NGF administration the animals were sacrificed 7, 15 and 30 days after the injection. The injected and contralateral muscles were collected and analysed by histological and immunohistochemical techniques to verify the attenuation of the dystrophy and the restoration of usual innervation."}, "[3]": {"test_system": "anti-NGF mice", "test": "Number of ChAT-positive neurons in the basal forebrain (immunohistochemistry, stereology)", "type": "in vivo, mouse", "procedure": "(§1) Peptide 18 treatment. Prior to the injections, phages carrying the peptide 18 or a peptide raised against NT-3 (negative control) were amplified by infecting 2.5 ml of an overnight colture of DH5alpha F′ bacteria with 5 ml of phage supernatant in 1 liter of 2TY. After an overnight incubation at 30° C., bacteria were removed by centrifugation at 6000 rpm for 20 min at 4° C. Phage particles were precipitated by adding 1 volume of PEG/NaCl (20% PEG6000, 2.5 M NaCl) to 5 volumes of the supernatant. After mixing, the solution was left stand overnight at 4° C. and spinned at […] for 30 min. The pellet was resuspended in 40 ml of […], kept at 65° C. and then spun for 5 min at 11000 rpm.\nOne volume of PEG/NaCl was mixed to 5 volumes of the phage containing supernatant and incubated for 2 hrs at 4° C. After spinning at 11000 rpm for 5 min., the pellet was resuspended in PBS, spun again to remove cell debris and filtered through a 0.22 μm sterile filter. The phage suspension was then titred by infecting 100 μl of an overnight colture of DH5α F′, mixed with LB top agar and plated on LB plates. Phages carrying the carrying the peptide 18 or a peptide binder of anti-NT-3 (10^9–10^12 pfu/μl) were injected in both lateral ventricles. Phages were injected at postnatal day 53 (P53) and mice were killed 1 week after the injection. For the injection, mice were anaesthetised with 2,2,2-Tribromoethanol (0.2 ml/10 g body weight of a 1.2% solution). One μl of phage suspension was injected using a 17 gauge needle connected to a 10 μl Hamilton by a polyethylene cannula, 1 mm lateral and 1 mm anterior to Bregma. After the injection, animals were treated with ampicillin (1 mg/kg) every day, in order to prevent any bacterial infection. Experiment were performed three times for a total number of animals equal to 14 for each group of treatment.\nL-thyroxine treatment. […]\nQuantitative stereology. The volume of basal forebrain and the number of BFCNs was evaluated in 9 anti-NGF transgenic mice and 8 transgenic controls by using a stereological approach (Ruberti, 2000)."}, "[4]": {"test_system": "free NGF", "test": "Determination of free NGF by ELISA", "type": "in vivo, mouse", "procedure": "Determination of free NGF. The levels of free NGF (i.e. NGF not bound to the transgenic antibodies) in the different tissues was determined by an ELISA assay. This assay exploits the property of αD11 antibody to recognize NGF in a two-site ELISA format 16. Samples of blood serum or of tissue extracts (derived as in Molnar et al., 1998) were added to wells coated with mAb αD11 (coating concentration of […]). After incubation for 2 hours at r.t. and extensive washing with PBS-0.05% Tween 20, followed by PBS, free NGF, not engaged with transgenic αD11, was detected using an affinity-purified rabbit anti-NGF polyclonal antiserum."}, "[5]": {"test_system": "αD11 antibody", "test": "Phage ELISA assay", "type": "binding", "details": "phages selected against αD11", "procedure": "Phage ELISA assay. Ninety-six well plates were coated with 100 μl of rat anti-pill monoclonal antibody (57D1, gift by P. Delmastro) diluted in coating buffer (1 μg/ml 50 mM carbonate buffer pH 9.6) and incubated overnight at 4° C. Palts were washed in PBST and blocked in 5% milk/PBST for 1 h at 37° C. on a rocking platform. After 1 brief wash, a mixture of cleared phage supernatant (50 μl) and 50 μl of 5% milk/PBST was added and incubated for 1 h at 37° C. The plates were washed and 100 μl of αD11 antibody dilution (1 μg/ml in 5% milk/PBS) were added and left overnight at 4° C. After washing, an alkaline phosphatase conjugated anti-mouse antibody was added and left at 4° C. for 4 hrs. The reaction was developed by adding 200 μl of the substrate solution (10% dietanolamine, 5 mM MgCl2 pH 9.6) for 2 min followed by an incubation at 37° C. for 1 h in 100 μl of developing solution (1 mg/ml NTB in 10% dietanolamine, 5 mM MgCl2, pH 9.6).\nPositive phage clones were analyzed by the single strand DNA sequencing. The positive phage clones were sequenced and re-tested using dot blot experiments towards the αD11 antibody. At least twenty were analyzed."}, "[6]": {"test_system": "anti-NGF mice", "test": "AT8 (phosphorylated tau) immunohistochemistry in entorhinal cortex", "type": "in vivo, mouse", "procedure": "as §1\nOne volume of PEG/NaCl was mixed to 5 volumes of the phage containing supernatant and incubated for 2 hrs at 4° C. After spinning at 11000 rpm for 5 min., the pellet was resuspended in PBS, spun again to remove cell debris and filtered through a 0.22 μm sterile filter. The phage suspension was then titred by infecting 100 μl of an overnight colture of DH5α F′, mixed with LB top agar and plated on LB plates. Phages carrying the carrying the peptide 18 or a peptide binder of anti-NT-3 (10^9–10^12 pfu/μl) were injected in both lateral ventricles. Phages were injected at postnatal day 53 (P53) and mice were killed 1 week after the injection. […]"}, "[7]": {"test_system": "visual cortex slices of anti-NGF mice", "test": "Long Term Potentiation (LTP) in visual cortex slices, electrophysiological recordings", "parameters": "species or system mouse", "details": "12 µg/animal/day for 4 weeks", "procedure": "Visual cortex slices preparation and electrophysiological recordings. Postsynaptic field potentials were recorded in […] in vitro slices containing visual cortex, following previously described methods (Kirkwood and Bear, 1994). Anti-NGF and transgenic control mice were deeply anesthetized with urethane and then decapitated. The brain was rapidly removed and visual cortex slices (400 μm) prepared and superfused in a submerged recording chamber at 33° C. with gassed artificial cerebrospinal fluid (aCSF) at a rate of 4 ml/min.\nThe amplitude of the maximum negative field potential in layer 2/3 was used as a measure of the evoked population excitatory current. LTP was induced by 3 trains of high frequency stimulation (HFS, 100 Hz, 1 s). Experiments were performed at different postnatal ages 6 months, when the functional maturation of the visual cortex is completed. Acetylcholine dependence of LTP was investigated by locally delivering through the recording pipette. […] The magnitude of both LTP was measured starting 30 min after the end of the corresponding conditioning protocol. Data for each experimental group were pooled and expressed as percentage change from control baseline, PCCB±S.E.M. Statistical comparison was done by applying a t-test and Mann-Whitney Rank Sum Test between baseline and LTP mean values."}, "[8]": {"details": "phage injected intraventricularly"}, "[9]": {"details": "intraperitoneal, 10 μg daily from P45 to P62"}, "[10]": {"details": "intraperitoneal, daily from P45 to P62"}}, "note": "“Also recorded” adds a separate entry of the source."}
{"molecule": "NGF: Nerve Growth Factor, neurotrophin, given as pellet, adenoviral cDNA vector, minipump infusion or via NGF-secreting fibroblasts", "values": [{"measurement": "ChAT expression in nuclei of the basal forebrain and behaviour (cholinergic phenotype)", "setting": "[1]", "result": "phenotype reversibility to be observed"}, {"measurement": "muscle fibre morphology and cholinergic and peptidergic innervation", "setting": "[2]", "result": "re-assumed an usual appearance"}]}
{"molecule": "RGSRHDL [peptide 18]", "values": [{"measurement": "number of ChAT positive neurons in the basal forebrain", "setting": "[3]; phage injected in both lateral ventricles at P53, killed 1 week later", "result": "restored"}, {"measurement": "free NGF in blood serum and submandibular gland", "setting": "[4]; [8]", "result": "equal to animals treated with the non related peptide binder of anti-NT-3"}, {"measurement": "free NGF in brain", "setting": "[4]; [8]", "result": "increase only at the level basal forebrain"}, {"measurement": "binding activity of phage clone to αD11", "setting": "[5]", "result": "stronger binding activity"}, {"measurement": "AT8 labeling (hyperphosphorylated tau) in the somatic compartment of neurons of the entorhinal cortex", "setting": "[6]; phage injected intraventricularly at P53", "result": "not paralleled by the disappearance of AT8 labeling; also recorded: decreases the expression in the soma"}]}
{"molecule": "N[C@@H](Cc1cc(I)c(Oc2cc(I)c(O)c(I)c2)c(I)c1)C(=O)O", "note": "[LT4, L-thyroxine, reference compound]", "values": [{"measurement": "number of ChAT-positive neurons in the basal forebrain, compared with transgenic control", "setting": "[3]; [9]", "result": "equal to that observed in transgenic control animals"}, {"measurement": "number of ChAT-positive neurons, increase over not-treated or vehicle-treated anti-NGF mice", "setting": "[3]; [9]", "result": 40, "unit": "%"}, {"measurement": "free NGF in brain, blood serum and submandibular gland, compared with transgenic control", "setting": "[4]; [10]", "result": "reached almost the levels detectable in transgenic control animals"}, {"measurement": "free NGF in brain, blood serum and submandibular gland, compared with vehicle", "setting": "[4]; [10]", "result": "higher than that detected in animals treated with vehicle"}, {"measurement": "AT8 labeling in the somatic compartment of neurons of the entorhinal cortex", "setting": "[6]; [10]", "result": "disappearance of AT8 labeling"}, {"measurement": "rescue of synaptic plasticity (LTP)", "setting": "[7]", "result": "only a mild rescue"}]}
